In the experiment the target is T1, SHP2 protein (Homo sapiens, UniProt Q06124).
T1 sequence (Q06124 1-593): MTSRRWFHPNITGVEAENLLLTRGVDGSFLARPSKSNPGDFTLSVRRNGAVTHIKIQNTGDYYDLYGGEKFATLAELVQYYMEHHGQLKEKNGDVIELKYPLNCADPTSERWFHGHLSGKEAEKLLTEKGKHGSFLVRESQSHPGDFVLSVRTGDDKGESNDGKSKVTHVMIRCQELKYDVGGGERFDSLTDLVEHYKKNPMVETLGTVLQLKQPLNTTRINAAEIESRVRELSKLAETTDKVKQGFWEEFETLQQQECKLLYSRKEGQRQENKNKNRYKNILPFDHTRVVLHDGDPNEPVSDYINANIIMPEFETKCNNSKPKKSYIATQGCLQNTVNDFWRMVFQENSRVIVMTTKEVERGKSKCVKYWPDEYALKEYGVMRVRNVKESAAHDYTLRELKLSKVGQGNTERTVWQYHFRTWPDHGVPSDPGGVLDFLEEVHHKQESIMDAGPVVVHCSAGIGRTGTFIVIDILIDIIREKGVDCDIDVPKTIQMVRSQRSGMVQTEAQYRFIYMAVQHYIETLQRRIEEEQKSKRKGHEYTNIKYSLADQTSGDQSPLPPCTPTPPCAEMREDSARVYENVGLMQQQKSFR
The experiment in a line: Measurement of SHP2 protein degradation in MV-4-11 cells (western blotting). It is filed as cell-based. Also on record: endogenous in cells. Conditions: harvested after 24 hours. As to the method:
MV-4-11 cells were treated with the synthesized Example compounds, and the amount of SHP2 protein present in the cells was measured using western blotting detection. The protocol for the experiment conducted using MV-4-11 cells is as follows.
[Culture] MV-4-11 cells were resuspended in IMDM MEDIUM (Hyclone, SH30228.01), 5% FBS (Hyclone, SV30207.02), 1% Penicillin-streptomycin (Welgene, LS 202-02) media and seeded at 1×10^6/mL in 12-well plates (1 mL each).
[Compound treatment]12-well plates were treated as follows. 10 mM stock dissolved in DMSO was serially diluted 1/100 or 1/10 with media, and the compounds were treated to the cells at a final concentration of 0.01, 0.1, 1 μM or 0.001, 0.01, 0.1 μM, and harvested after 24 hours. For the negative control group, DMSO diluted 1/100 or 1/1000 in media was added (3 μL DMSO+297 μL media or 1 μL DMSO+999 μL media).
[Harvest] Each well was pipetted with a 1 mL pipette, collected in a 1.5 mL microtube, and centrifuged (500 g, 5 min, 4° C.). The supernatant was removed, washed with PBS, and centrifuged again (500 g, 5 min, 4° C.). The supernatant was removed and a pellet was prepared.
[Cell lysis and sample preparation] Lysis buffer was prepared as follows. RIPA buffer (Biosesang, RC2038-050-00)+0.5 mM PMSF (SIGMA, P7626)+1× Protease/Phosphatase Inhibitor (Cell signaling, 5872S) were added at 50 μL per tube and incubated on ice for 30 minutes (vortexed at 0 and 30 minutes). After sonication (10 sec pulse, 30 sec rest, 5 cycles, 70% amplification) and centrifugation (15,000 g, 15 min, 4° C.), only the supernatant was transferred to a microtube. RIPA buffer 7.5 μL and sample 2.5 μL were added to a 96-well plate to dilute to 1/4, and then BCA Protein Assay Kit (iNtRON, 21071) A and B were mixed in a 50:1 ratio and 200 μL each was added. After that, the plate was incubated at 37° C. for 30 minutes and left at room temperature for 10 minutes. After shaking for 10 seconds with a SYNERGY H1 microplate reader from BioTek, the absorbance was measured at 562 nm. The protein was quantified using the measured value to prepare a sample, which was then incubated at 70° C. for 10 minutes. The sample buffer used at this time is a mixture of NuPAGE or Bolt 4× sample buffer (Invitrogen) and each 10× sample reducing agent according to the gel to be used, and RIPA buffer was used for protein dilution.
[Western blotting detection] Equal amounts of samples were loaded onto NuPAGE or Bolt Bis-tris 4-12% gradient gels and run (200 V, 35 min). This was transferred to […] NC membranes using Trans-blot Turbo (BIO-RAD) (1.3 A constant, 25 V limit, 15 min), and was blocked at room temperature for 1 hour with Skim milk or Intercept Blocking Buffer (LI-COR, 927-60001):0.1% TBST=1:1. Anti-SHPTP2 Mouse (1:500 in 2% BSA/0.2% TBST, size: 70 kDa, Santacruz sc-7384) was incubated overnight at 4° C., and Anti-GAPDH Rabbit (1:2,000 in 2% BSA/0.2% TBST, size: 37 kDa, CST #2118) was incubated at room temperature for 1.5 hours or 3 hours. After washing three times for 5 minutes each with 0.2% TBST washing buffer, secondary antibodies Anti-Mouse IgG (1:5,000 in 2% BSA/0.2% TBST, CST) and IRDye® 680RD Goat anti-Rabbit IgG Secondary Antibody (1:10,000 in 2% BSA/0.2% TBST, LI-COR 926-68071) were added, and incubated on a rocker at room temperature for 45 minutes. The resultants were washed five times for 5 minutes each with 0.2% TBST washing buffer, and detected using LI-COR's Odyssey. GAPDH was detected with a 700 nm channel, and SHPTP2 was detected using SuperSignal West Pico PLUS Chemiluminescent Substrate.
A general note: Immunoblotting shows a protein as a band on a membrane.

In the case of `Cc1ncsc1-c1ccc(CNC(=O)[C@@H]2C[C@@H](O)CN2C(=O)[C@@H](NC(=O)C2(F)CC2)C(C)(C)C)c(OCCN2CCN(C(=O)CNc3cccc(Sc4cnc(N5CCC(C)(CN)CC5)cn4)c3Cl)CC2)c1` [Example 4, (2S,4R)—N-(2-(2-(4-((3-((5-(4-(aminomethyl)-4-methylpiperidin-1-yl)pyrazin-2-yl)thio)-2-chlorophenyl)glycyl)piperazin-1-yl)ethoxy)-4-(4-methylthiazol-5-yl)benzyl)-1-((S)-2-(1-fluorocyclopropane-1-carboxamido)-3,3-dimethylbutanoyl)-4-hydroxypyrrolidine-2-carboxamide], the SHP2% degradation reads like this: (0.01 μM) 42.9%; (0.1 μM) 95.6%.
Consider `Cc1ncsc1-c1ccc(CNC(=O)[C@@H]2C[C@@H](O)CN2C(=O)[C@@H](NC(=O)C2(F)CC2)C(C)(C)C)c(O[C@H]2CC[C@H](CN3CC(Nc4cccc(Sc5cnc(N6CCC(C)(CN)CC6)cn5)c4Cl)C3)CC2)c1` [Example 5, (2S,4R)—N-(2-(((1R,4S)-4-((3-((3-((5-(4-(aminomethyl)-4-methylpiperidin-1-yl)pyrazin-2-yl)thio)-2-chlorophenyl)amino)azetidin-1-yl)methyl)cyclohexyl)oxy)-4-(4-methylthiazol-5-yl)benzyl)-1-((S)-2-(1-fluorocyclopropane-1-carboxamido)-3,3-dimethylbutanoyl)-4-hydroxypyrrolidine-2-carboxamide], for which the SHP2% degradation reads like this: (0.01 μM) 22.3%; (0.1 μM) 62.0%.
`Cc1ncsc1-c1ccc(CNC(=O)[C@@H]2C[C@@H](O)CN2C(=O)[C@@H](NC(=O)C2(F)CC2)C(C)(C)C)c(O[C@H]2CC[C@H](CN3CCC(Nc4cccc(Sc5cnc(N6CCC(C)(CN)CC6)cn5)c4Cl)CC3)CC2)c1` [Example 6, (2S,4R)—N-(2-(((1R,4S)-4-((4-((3-((5-(4-(aminomethyl)-4-methylpiperidin-1-yl)pyrazin-2-yl)thio)-2-chlorophenyl)amino)piperidin-1-yl)methyl)cyclohexyl)oxy)-4-(4-methylthiazol-5-yl)benzyl)-1-((S)-2-(1-fluorocyclopropane-1-carboxamido)-3,3-dimethylbutanoyl)-4-hydroxypyrrolidine-2-carboxamide]: the SHP2% degradation runs as follows: (0.01 μM) 14.8%; (0.1 μM) 56.9%.
The corresponding values for `Cc1ncsc1-c1ccc(CNC(=O)[C@@H]2C[C@@H](O)CN2C(=O)[C@@H](NC(=O)C2(F)CC2)C(C)(C)C)c(OC2CCN(C[C@H]3CC[C@H](Nc4nccc(Sc5cnc(N6CCC(C)(CN)CC6)cn5)c4Cl)CC3)CC2)c1` [Example 7, (2S,4R)—N-(2-((1-(((1R,4S)-4-((4-((5-(4-(aminomethyl)-4-methylpiperidin-1-yl)pyrazin-2-yl)thio)-3-chloropyridin-2-yl)amino)cyclohexyl)methyl)piperidin-4-yl)oxy)-4-(4-methylthiazol-5-yl)benzyl)-1-((S)-2-(1-fluorocyclopropane-1-carboxamido)-3,3-dimethylbutanoyl)-4-hydroxypyrrolidine-2-carboxamide] are 10.1% and 55.4%.
For `Cc1ncsc1-c1ccc(CNC(=O)[C@@H]2C[C@@H](O)CN2C(=O)[C@@H](NC(=O)C2(F)CC2)C(C)(C)C)c(OCCN2CCN(CC3CCN(c4nccc(Sc5cnc(N6CCC(C)(CN)CC6)cn5)c4Cl)CC3)CC2)c1` [Example 8, (2S,4R)—N-(2-(2-(4-((1-(4-((5-(4-(aminomethyl)-4-methylpiperidin-1-yl)pyrazin-2-yl)thio)-3-chloropyridin-2-yl)piperidin-4-yl)methyl)piperazin-1-yl)ethoxy)-4-(4-methylthiazol-5-yl)benzyl)-1-((S)-2-(1-fluorocyclopropane-1-carboxamido)-3,3-dimethylbutanoyl)-4-hydroxypyrrolidine-2-carboxamide], in that order: 11.7% and 81.9%.

The record behind these values is US20260144788A1, “COMPOUND FOR SHP2 PROTEIN DEGRADATION AND MEDICAL USES THEREOF” (UBIX THERAPEUTICS, INC., priority 2022, published 2026).
